{
  "source": "patent US4165428A",
  "about": "“Indoleacetic acid ester derivatives” (Hisamitsu Pharmaceutical Co., Inc., priority 1976, dated 1979)",
  "key": {"[1]": {"experiment": "Ulcerogenic activity on rat stomach", "assay_type": "in vivo, Male Wistar rats", "conditions": "oral, 20 mg/kg, 18 hours after administration; sum of area of erosion and ulcer", "experimental": "Male Wistar rats weighing 200-220 g were fasted for 24 hours. Indomethacin and the test drugs were suspended with 0.5% tragacanth solution, and these suspensions were given the animals orally at each dose of 20 mg/kg. The animals were sacrificed with ether 18 hours after administration. The excised stomachs were filled with 1% formalin solution and the whole were immersed in the 1% formalin solution for fixation. Thereafter, an incision was made parallel to the greater curvature to examine whether or not an erosion or ulcer occurs. The degree of erosion and ulcer was represented by the sum of area (mm^2)."}, "[2]": {"experiment": "Anti-inflammatory activity for oral route (carrageenin edema of hind paw)", "assay_type": "in vivo, male rats of Wistar-strain", "conditions": "for anti-inflammatory effect for oral route (relative inhibition versus indomethacin): 10mg/kg, percent inhibition divided by that of indomethacin, edema measured after 3 hours", "experimental": "A group of five male rats of Wistar-strain (body weight 100-150 g) were orally given each test compound suspended in 0.5% tragacanth-saline. After one hour 1.0% carrageenin suspended in the water for injection was injected subcutaneously to a hind paw."}, "[3]": {"experiment": "Acute toxicity (lethal dose)", "assay_type": "in vivo", "conditions": "mice, estimated from death 72 hours following administration", "experimental": "Each test compound suspended in 1% tragacanth-saline was administered intraperitoneally or orally to male mice of ddY-strain (body weight 16-24 g). The lethal dose was estimated from the death of animals 72 hours following administration."}},
  "data": [
    {"molecule": "COc1ccc2c(c1)c(CC(=O)OCc1ccc(C)cc1)c(C)n2C(=O)c1ccc(Cl)cc1", "values": [
      {"measurement": "gastric ulcer index", "setting": "[1]", "value": "0.88 ± 0.39", "unit": "mm^2"},
      {"measurement": "anti-inflammatory effect for oral route (relative inhibition versus indomethacin)", "setting": "[2]", "value": 1.00},
      {"measurement": "acute toxicity for oral route (lethal dose)", "setting": "[3]", "value": 500, "unit": "mg/kg"}
    ]},
    {"molecule": "COc1ccc2c(c1)c(CC(=O)O)c(C)n2C(=O)c1ccc(Cl)cc1", "note": "[indomethacin, reference compound]", "values": [
      {"measurement": "gastric ulcer index", "setting": "[1]", "value": "6.75 ± 1.98", "unit": "mm^2"},
      {"measurement": "mean percent inhibition of carrageenin edema", "setting": "[2]; 10 mg/kg", "value": 41.1, "unit": "%"},
      {"measurement": "anti-inflammatory effect for oral route (relative inhibition versus indomethacin)", "setting": "[2]", "value": 1.0},
      {"measurement": "acute toxicity for oral route (lethal dose)", "setting": "[3]", "value": "10 to 20", "unit": "mg/kg"}
    ]},
    {"molecule": "COc1ccc2c(c1)c(CC(=O)OCc1ccccc1C)c(C)n2C(=O)c1ccc(Cl)cc1", "values": [
      {"measurement": "gastric ulcer index", "setting": "[1]", "value": "0.19 ± 0.13", "unit": "mm^2"},
      {"measurement": "acute toxicity for oral route (lethal dose)", "setting": "[3]", "value": "> 500", "unit": "mg/kg"}
    ]},
    {"molecule": "COc1ccc2c(c1)c(CC(=O)OCc1ccccc1F)c(C)n2C(=O)c1ccc(Cl)cc1", "values": [
      {"measurement": "gastric ulcer index", "setting": "[1]", "value": "0.50 ± 0.30", "unit": "mm^2"},
      {"measurement": "anti-inflammatory effect for oral route (relative inhibition versus indomethacin)", "setting": "[2]", "value": 0.76},
      {"measurement": "acute toxicity for oral route (lethal dose)", "setting": "[3]", "value": "> 500", "unit": "mg/kg"}
    ]},
    {"molecule": "COc1ccc2c(c1)c(CC(=O)OCc1ccc(F)cc1)c(C)n2C(=O)c1ccc(Cl)cc1", "values": [
      {"measurement": "gastric ulcer index", "setting": "[1]", "value": "0.13 ± 0.08", "unit": "mm^2"},
      {"measurement": "anti-inflammatory effect for oral route (relative inhibition versus indomethacin)", "setting": "[2]", "value": 0.41},
      {"measurement": "acute toxicity for oral route (lethal dose)", "setting": "[3]", "value": "> 500", "unit": "mg/kg"}
    ]},
    {"molecule": "COc1ccc2c(c1)c(CC(=O)OCc1cccc(C)c1)c(C)n2C(=O)c1ccc(Cl)cc1", "values": [
      {"measurement": "gastric ulcer index", "setting": "[1]", "value": "0.13 ± 0.08", "unit": "mm^2"},
      {"measurement": "acute toxicity for oral route (lethal dose)", "setting": "[3]", "value": "200 to 500", "unit": "mg/kg"}
    ]},
    {"molecule": "COc1ccc2c(c1)c(CC(=O)OCc1cccc(F)c1)c(C)n2C(=O)c1ccc(Cl)cc1", "values": [
      {"measurement": "gastric ulcer index", "setting": "[1]", "value": "0.50 ± 0.38", "unit": "mm^2"},
      {"measurement": "anti-inflammatory effect for oral route (relative inhibition versus indomethacin)", "setting": "[2]", "value": 0.68},
      {"measurement": "acute toxicity for oral route (lethal dose)", "setting": "[3]", "value": "> 500", "unit": "mg/kg"}
    ]}
  ]
}
